Patent US12416052B2, “Capturing, concentrating, and detecting microbes in a sample using magnetic ionic liquids and recombinase polymerase amplification” (priority 2019, dated 2025)
Like-named read-outs stand apart in the source and are kept apart here.

Experiments:
[1] = system: Salmonella enterica subsp. enterica ser. Typhimurium ATCC 14028; assay type: cell-based; set-up: key to Relative Affinity for MIL: +++++: higher losses during wash step are due to lower cellular affinity for the MIL; ++++: higher losses during wash step are due to lower cellular affinity for the MIL; +++: higher losses during wash step are due to lower cellular affinity for the MIL; ++: higher losses during wash step are due to lower cellular affinity for the MIL; +: higher losses during wash step are due to lower cellular affinity for the MIL
Procedure: (§1) A universal schematic for MIL-based cell extraction is depicted in FIG. 7B. A 1 mL volume of diluted cell suspension was added to a flat-bottomed 4-mL screw cap glass vial. Fifteen microliters of either the Ni(II) or Dy(III) MIL was added and dispersed into microdroplets by vortex agitation for 30 s. The aqueous phase was decanted following dispersive extraction, and the MIL was subjected to a brief wash step using 1 mL of nuclease-free water (Integrated DNA Technologies, Coralville, IA, USA) to ensure adequate removal of loosely or incidentally bound cells. After washing, release of viable cells from the MIL extraction phase was carried out using a “back-extraction” step accomplished through addition of 1 mL of an ionically-rich nutritive medium comprised of 20 g L^−1 tryptone and 10 g L^−1 NaCl, followed by a 120 s vortex step. After back-extraction, aliquots of the cell-enriched back-extraction medium were enumerated using the track dilution method using 100×100 mm square, gridded TSA, BSA, CA or VRBGA plates.
(§2) Following back-extraction, aliquots of the cell-enriched back-extraction medium were serially diluted in 0.1% peptone water and a 10 μL aliquot of each dilution was applied to a separate lane on square plates containing an appropriate agar medium. The plates were then tilted at an approximately 80° angle for 15 min to allow the droplets to travel toward the opposite end of the plate. The plates were incubated for 24 h at 37° C. (TSA, VRBGA), for 48 h at 37° C. (BSA) or for 24 h at 37° C. (CA). Colonies were counted and colony forming units (CFU) were determined. The enrichment factor (EF) for MIL-based extraction was calculated using Equation 1, where CMIL represents the concentration of bacteria in suspension following extraction using the MIL and CS is the initial concentration of bacteria in the sample.
Because culture-based methods depend on sample preparation steps that preserve bacterial viability, potential deleterious cytotoxic effects imparted by MIL extractants must be considered. To begin our further study of MIL-bacterial interactions, we selected S. typhimurium ATCC 14028 as a model gram-negative pathogen and the Ni(II) MIL as extractant.

E. coli O157:H7 N192-5-1 = experiment: MIL-based whole-cell extraction; set-up: species or system Escherichia coli; settings: 1×10^6 CFU mL^−1 in TSB, 15 μL MIL
Procedure: as §1, §2
(§3) In order to explore the broader utility of our approach, evaluation of additional cell types is needed. We began this extended evaluation of the Ni(II) MIL with seven representative DNA subgroups of Salmonella and eight strains of E. coli O157:H7. Briefly, a 1 mL aliquot of TSB was inoculated with 1×10^6 CFU mL^−1 of bacteria, and spiked with 15 μL of the Ni(II) MIL. MIL-based extraction was performed and 10 μL aliquots of the back-extraction solution were enumerated using TSA and BSA plates (Salmonella) or TSA plates (E. coli O157:H7). […] We later determined that VRBGA was a suitable common medium for this purpose and used this in our statistical analysis. Average CFU counts were compared to standards that were not exposed to the Ni(II) MIL. Enrichment factors were calculated for Salmonella on both non-selective (TSA) and selective agars (BSA) and for E. coli O157:H7 on non-selective agar (TSA). […] Note: As BSA is a Salmonella-specific agar E. coli O157:H7 was not plated to BSA in this example.

E. coli O157:H7 N192-6-1 = experiment: MIL-based whole-cell extraction; set-up: species or system Escherichia coli; settings: 1×10^6 CFU mL^−1 in TSB, 15 μL MIL
Procedure: as §1, §2, §3

E. coli O157:H7 N317-3-1 = experiment: MIL-based whole-cell extraction; set-up: species or system Escherichia coli; settings: 1×10^6 CFU mL^−1 in TSB, 15 μL MIL
Procedure: as §1, §2, §3

E. coli O157:H7 N336-4-1 = experiment: MIL-based whole-cell extraction; set-up: species or system Escherichia coli; settings: 1×10^6 CFU mL^−1 in TSB, 15 μL MIL
Procedure: as §1, §2, §3

E. coli O157:H7 N366-2-2 = experiment: MIL-based whole-cell extraction; set-up: species or system Escherichia coli; settings: 1×10^6 CFU mL^−1 in TSB, 15 μL MIL
Procedure: as §1, §2, §3

E. coli O157:H7 N405-5-8 = experiment: MIL-based whole-cell extraction; set-up: species or system Escherichia coli; settings: 1×10^6 CFU mL^−1 in TSB, 15 μL MIL
Procedure: as §1, §2, §3

E. coli O157:H7 N549-3-1 = experiment: MIL-based whole-cell extraction; set-up: species or system Escherichia coli; settings: 1×10^6 CFU mL^−1 in TSB, 15 μL MIL
Procedure: as §1, §2, §3

E. coli O157:H7 N886-71 = experiment: MIL-based whole-cell extraction; set-up: species or system Escherichia coli; settings: 1×10^6 CFU mL^−1 in TSB, 15 μL MIL
Procedure: as §1, §2, §3

K. aerogenes ATCC 29940 = experiment: MIL-based whole-cell extraction; set-up: species or system Klebsiella aerogenes; settings: EF determined using Tryptic Soy Agar
Procedure: (§4) A universal schematic for MIL-based cell extraction is depicted in FIG. 7B. A 1 mL volume of diluted cell suspension was added to a flat-bottomed 4-mL screw cap glass vial. Fifteen microliters of either the Ni(II) or Dy(III) MIL was added and dispersed into microdroplets by vortex agitation for 30 s. The aqueous phase was decanted following dispersive extraction, and the MIL was subjected to a brief wash step using 1 mL of nuclease-free water (Integrated DNA Technologies, Coralville, IA, USA) to ensure adequate removal of loosely or incidentally bound cells. […]
(§5) Following back-extraction, aliquots of the cell-enriched back-extraction medium were serially diluted in 0.1% peptone water and a 10 μL aliquot of each dilution was applied to a separate lane on square plates containing an appropriate agar medium. […] Colonies were counted and colony forming units (CFU) were determined. The enrichment factor (EF) for MIL-based extraction was calculated using Equation 1, where CMIL represents the concentration of bacteria in suspension following extraction using the MIL and CS is the initial concentration of bacteria in the sample.

E. amylovora Ea935 = experiment: MIL-based whole-cell extraction; set-up: species or system Erwinia amylovora; settings: EF determined using Columbia Agar
Procedure: as §4, §5

[2] = system: Y. enterocolitica ATCC 2371; experiment: MIL-based whole-cell extraction; set-up: species or system Yersinia enterocolitica; settings: EF determined using Tryptic Soy Agar
Procedure: as §4, §5

[3] = system: Y. enterocolitica ATCC 9160; experiment: MIL-based whole-cell extraction; set-up: species or system Yersinia enterocolitica; settings: EF determined using Tryptic Soy Agar
Procedure: as §4, §5

[4] = Table 3, 1×10^5 CFU mL^−1 in TSB, 15 μL MIL
[5] = Table 4, 1×10^6 CFU mL^−1 in TSB, 15 μL MIL
[6] = average over exposure times 0-15 min (n=4)
[7] = exposure time 0 min, 1×10^5 CFU mL^−1 in TSB, 15 μL MIL

CCCCCCCCCCCCCC[P+](CCCCCC)(CCCCCC)CCCCCC.O=C([CH-]C(=O)C(F)(F)F)C(F)(F)F.O=C([CH-]C(=O)C(F)(F)F)C(F)(F)F.O=C([CH-]C(=O)C(F)(F)F)C(F)(F)F.[Ni+2] [Ni(II) MIL, [P66614^+][Ni(hfacac)3^−]]
Relative Affinity for MIL [1]: ++++ | enrichment factors ([1]; Example 2, 2×T, 1×NaCl back-extraction medium): approximately 12 | Enrichment Factor (BSA) [1, 4]: 14 | Enrichment Factor (TSA) [1, 4]: 10 | Enrichment Factor (BSA) [1, 5]: 6 | Enrichment Factor (TSA) [1, 5]: 8 | average EF value (BSA) [1, 6]: 8.2±1.0 | average EF value (TSA) [1, 6]: 7.2±0.6 | Percent-Loss ([1]; cells lost to wash solution): 53 ± 3% | Enrichment Factor (BSA) [1, 7]: 7 | Enrichment Factor (TSA) [1, 7]: 8 | Enrichment Factor (BSA) ([1]; exposure time 5 min): 8 | Enrichment Factor (TSA) ([1]; exposure time 5 min): 7 | Enrichment Factor (BSA) ([1]; exposure time 10 min): 8 | Enrichment Factor (TSA) ([1]; exposure time 10 min): 6 | Enrichment Factor (BSA) ([1]; exposure time 15 min): 9 | Enrichment Factor (TSA) ([1]; exposure time 15 min): 8 | Enrichment Factor (TSA) (E. coli O157:H7 N192-5-1): 7 | Enrichment Factor (TSA) (E. coli O157:H7 N192-6-1): 9 | Enrichment Factor (TSA) (E. coli O157:H7 N317-3-1): 4 | Enrichment Factor (TSA) (E. coli O157:H7 N336-4-1): 3 | Enrichment Factor (TSA) (E. coli O157:H7 N366-2-2): 4 | Enrichment Factor (TSA) (E. coli O157:H7 N405-5-8): 2 | Enrichment Factor (TSA) (E. coli O157:H7 N549-3-1): 8 | Enrichment Factor (TSA) (E. coli O157:H7 N886-71): 4 | Enrichment Factor (K. aerogenes ATCC 29940): 71 | Enrichment Factor (E. amylovora Ea935): 10 | Enrichment Factor [2]: 5 | Enrichment Factor [3]: 5
